This note sets out measurements from patent US20110044938A1 (NYCOMED GMBH, priority 2006, published 2011).

The subject of assay [1] is RKO (RKOp27) human colon adenocarcinoma cells. The assay is described as follows: Alamar Blue cell viability assay, anti-proliferative/cytotoxic activity on proliferating RKO subclones. The class given is cell-based. Conditions: RKOp27, 72 h, RKO p27 uninduced (proliferating) cells, value = class bound given in Table A, read-out: −logIC50 RKO p27 uninduced (proliferating) (converted). Summed up: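 RKOp27 subclones (5000 cells/well) were exposed 24 h after seeding to semi-log compound dilutions in DMEM with 10% FCS, in quadruplicate, for 72 h at 37 °C. Viability was read by Alamar Blue fluorescence (544/590 nm) relative to untreated cells (1% DMSO medium). IC50 came from concentration-effect curves and is reported as −log IC50 [mol/l].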

In assay [2] the test system is subclones of RKO colon adenocarcinoma cells (RKOp27 or RKOp21) arrested by Ponasterone A. The assay is described as follows: Alamar Blue cell viability assay, cell cycle specific mode of action: cells arrested by ectopic p27Kip1 induced by Ponasterone A versus proliferating cells. Conditions: Homo sapiens, RKO p27 induced (arrested) cells, 10 μM Ponasterone A, 72 hours, value = class bound given in Table A, read-out: −logIC50 RKO p27 induced (arrested) (converted). The class given is cell-based. The procedure, abridged:
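RKOp27 or RKOp21 cells, 15000/well in DMEM/10% FCS, either arrested by p27Kip1 induced with 10 μM Ponasterone A or proliferating without inducer; compound added after 24 h, 72 h at 37° C. Alamar Blue fluorescence (544/590 nm), viability as % of untreated cells; −log IC50 reported.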

In the case of `Cc1n[nH]cc1CNC(=O)OC1CCc2c(sc(NC(=O)CC(C)c3ccccc3)c2C#N)C1` (stereo not drawn) [Example 298, (3-Methyl-1H-pyrazol-4-ylmethyl)-carbamic acid 3-cyano-2-(3-phenyl-butanoylamino)-4,5,6,7-tetrahydro-benzo[b]thiophen-6-yl ester], the IC50 in assay [1] is at most 501 nM; in assay [2], at least 10000 nM.
With `CCNC(=O)OC1CCc2c(sc(NC(=O)CCc3ccccc3OCC)c2C#N)C1` (stereo not drawn) [Example 153, Ethyl-carbamic acid 3-cyano-2-[3-(2-ethoxy-phenyl)-propanoylamino]-4,5,6,7-tetrahydro-benzo[b]thiophen-6-yl ester], the IC50 in assay [1] is at most 501 nM; in assay [2] it was at least 10000 nM.
The corresponding values for `CC(C)N(C)C(=O)OCC1CCc2c(sc(NC(=O)/C=C/c3cccnc3)c2C#N)C1` (stereo not drawn) [Example 97, Isopropyl-methyl-carbamic acid 3-cyano-2-((E)-3-pyridin-3-yl-allanoylamino)-4,5,6,7-tetrahydro-benzo[b]thiophen-6-ylmethyl ester] are at most 501 nM and at least 100000 nM.
As to `COC(=O)OC1CCc2c(sc(NC(=O)/C=C/c3cccnc3)c2C#N)C1` (stereo not drawn) [Example 55, Carbonic acid 3-cyano-2-((E)-3-pyridin-3-yl-allanoylamino)-4,5,6,7-tetrahydro-benzo[b]thiophen-6-yl ester methyl ester], the results for the IC50 in assay [1] and in assay [2] were at most 501 nM and at least 100000 nM, respectively.
Taken in the same sequence, the figures for `N#Cc1c(NC(=O)/C=C/c2cccnc2)sc2c1CCC(OC(=O)N1CC[C@H](O)C1)C2` (stereo partly drawn) [Example 146, (S)-3-Hydroxy-pyrrolidine-1-carboxylic acid 3-cyano-2-((E)-3-pyridin-3-yl-allanoylamino)-4,5,6,7-tetrahydro-benzo[b]thiophen-6-yl ester] were at most 501 nM and at least 100000 nM.
Taken in the same sequence, the figures for `CCOc1ccccc1CCC(=O)Nc1sc2c(c1C#N)CCC(COC(=O)NCC1CCOCC1)C2` (stereo not drawn) [Example 194, (Tetrahydro-pyran-4-ylmethyl)-carbamic acid 3-cyano-2-[3-(2-ethoxy-phenyl)-propanoylamino]-4,5,6,7-tetrahydro-benzo[b]thiophen-6-ylmethyl ester] were at most 501 nM and at least 10000 nM.
Taken in the same sequence, the figures for `N#Cc1c(NC(=O)CCc2cccnc2)sc2c1CCC(COC(=O)N1CCCC1)C2` (stereo not drawn) [Example 258, Pyrrolidine-1-carboxylic acid 3-cyano-2-(3-pyridin-3-yl-propanoylamino)-4,5,6,7-tetrahydro-benzo[b]thiophen-6-ylmethyl ester] were 501 to 2000 nM and at least 100000 nM.
Regarding `COc1cccc(C(C)CC(=O)Nc2sc3c(c2C#N)CCC(COC(=O)NC(C)c2ccnn2C)C3)c1` (stereo not drawn) [Example 337, [1-(2-Methyl-2H-pyrazol-3-yl)-ethyl]-carbamic acid 3-cyano-2-[3-(3-methoxy-phenyl)-butanoylamino]-4,5,6,7-tetrahydro-benzo[b] thiophen-6-ylmethyl ester], the IC50 in assay [1] is 501 to 2000 nM; in assay [2] it was at least 50100 nM.
Taken in the same sequence, the figures for `Cn1cnc(CNC(=O)OCC2CCc3c(sc(NC(=O)/C=C/c4cccnc4)c3C#N)C2)c1` (stereo not drawn) [Example 44, (1-Methyl-1H-imidazol-4-ylmethyl)-carbamic acid 3-cyano-2-((E)-3-pyridin-3-yl-allanoylamino)-4,5,6,7-tetrahydro-benzo[b]thiophen-6-ylmethyl ester] were at most 501 nM and at least 100000 nM.
On to `CCOc1ccccc1CCC(=O)Nc1sc2c(c1C#N)CCC(OC(=O)NCc1conc1C)C2` (stereo not drawn) [Example 205, (3-Methyl-isoxazol-4-ylmethyl)-carbamic acid 3-cyano-2-[3-(2-ethoxy-phenyl)-propanoylamino]-4,5,6,7-tetrahydro-benzo[b]thiophen-6-yl ester], for which the IC50 in assay [1] was at most 501 nM; in assay [2], at least 100000 nM.
Taken in the same sequence, the figures for `COc1cccc(C(C)CC(=O)Nc2sc3c(c2C#N)CCC(COC(=O)NC(C)c2cccnc2)C3)c1` (stereo not drawn) [Example 335, (1-Pyridin-3-yl-ethyl)-carbamic acid 3-cyano-2-[3-(3-methoxy-phenyl)-butanoylamino]-4,5,6,7-tetrahydro-benzo[b] thiophen-6-ylmethyl ester] were 501 to 2000 nM and at least 50100 nM.
The corresponding values for `N#Cc1c(NC(=O)/C=C/c2cccnc2)sc2c1CCC(OC(=O)NCc1ccccc1)C2` (stereo not drawn) [Example 2, Benzyl-carbamic acid 3-cyano-2-((E)-3-pyridin-3-yl-allanoylamino)-4,5,6,7-tetrahydro-benzo[b]thiophen-6-yl ester] are 501 to 2000 nM and at least 10000 nM.
The corresponding values for `N#Cc1c(NC(=O)/C=C/c2cccnc2)sc2c1CCC(COC(=O)NCCn1ccnc1)C2` (stereo not drawn) [Example 30, (2-Imidazol-1-yl-ethyl)-carbamic acid-3-cyano-2-((E)-3-pyridin-3-yl-allanoylamino)-4,5,6,7-tetrahydro-benzo[b]thiophen-6-ylmethyl ester] are 501 to 2000 nM and at least 100000 nM.
Consider `N#Cc1c(NC(=O)/C=C/c2cccnc2)sc2c1CCC(OC(=O)NCc1ncc[nH]1)C2` (stereo not drawn) [Example 39, (1H-Imidazol-2-ylmethyl)-carbamic acid 3-cyano-2-((E)-3-pyridin-3-yl-allanoylamino)-4,5,6,7-tetrahydro-benzo[b]thiophen-6-yl ester], for which the IC50 in assay [1] is 501 to 2000 nM; in assay [2], at least 100000 nM.
Taken in the same sequence, the figures for `CCOc1ccccc1CCC(=O)Nc1sc2c(c1C#N)CCC(OC(=O)NCCc1cccnc1)C2` (stereo not drawn) [Example 166, (2-Pyridin-3-yl-ethyl)-carbamic acid 3-cyano-2-[3-(2-ethoxy-phenyl)-propanoylamino]-4,5,6,7-tetrahydro-benzo[b]thiophen-6-yl ester] were at most 501 nM and at least 100000 nM.
Taken in the same sequence, the figures for `COc1cccc(CCC(=O)Nc2sc3c(c2C#N)CCC(COC(=O)NC2CC2)C3)c1` (stereo not drawn) [Example 253, Cyclopropyl-carbamic acid 3-cyano-2-[3-(3-methoxy-phenyl)-propanoylamino]-4,5,6,7-tetrahydro-benzo[b]thiophen-6-ylmethyl ester] were at most 501 nM and at least 100000 nM.
Taken in the same sequence, the figures for `COc1cccc(CCC(=O)Nc2sc3c(c2C#N)CCC(OC(=O)NCCO)C3)c1` (stereo not drawn) [Example 250, (2-Hydroxy-ethyl)-carbamic acid 3-cyano-2-[3-(3-methoxy-phenyl)-propanoylamino]-4,5,6,7-tetrahydro-benzo[b]thiophen-6-yl ester] were at most 501 nM and at least 100000 nM.
Consider `Cc1cc(CNC(=O)OC2CCc3c(sc(NC(=O)/C=C/c4cccnc4)c3C#N)C2)no1` (stereo not drawn) [Example 42, (5-Methyl-isoxazol-3-ylmethyl)-carbamic acid 3-cyano-2-((E)-3-pyridin-3-yl-allanoylamino)-4,5,6,7-tetrahydro-benzo[b]thiophen-6-yl ester], for which the IC50 in assay [1] is 501 to 2000 nM; in assay [2], at least 100000 nM.
Take `N#Cc1c(NC(=O)/C=C/c2cccnc2)sc2c1CC[C@H](COC(=O)N1CCCC1)C2` [Example 68a, Pyrrolidme-1-carboxyhc acid (S)-3-cyano-2-((E)-3-pyridin-3-yl-allanoylamino)-4,5,6,7-tetrahydro-benzo[b]thiophen-6-ylmethyl ester]: the IC50 in assay [1] was at most 501 nM; in assay [2], at least 100000 nM.
Taken in the same sequence, the figures for `CCOc1ccccc1CCC(=O)Nc1sc2c(c1C#N)CCC(OC(=O)NCc1ccnn1CC)C2` (stereo not drawn) [Example 209, (2-Ethyl-2H-pyrazol-3-ylmethyl)-carbamic acid 3-cyano-2-[3-(2-ethoxy-phenyl)-propanoylamino]-4,5,6,7-tetrahydro-benzo[b]thiophen-6-yl ester] were at most 501 nM and at least 100000 nM.
Taken in the same sequence, the figures for `CC(C)CN(C)C(=O)OCC1CCc2c(sc(NC(=O)/C=C/c3cccnc3)c2C#N)C1` (stereo not drawn) [Example 137, Isobutyl-methyl-carbamic acid 3-cyano-2-((E)-3-pyridin-3-yl-allanoylamino)-4,5,6,7-tetrahydro-benzo[b]thiophen-6-ylmethyl ester] were at most 501 nM and at least 100000 nM.
Taken in the same sequence, the figures for `COCCNC(=O)OCC1CCc2c(sc(NC(=O)CCc3cccc(OC)c3)c2C#N)C1` (stereo not drawn) [Example 234, (2-Methoxy-ethyl)-carbamic acid 3-cyano-2-[3-(3-methoxy-phenyl)-propanoylamino]-4,5,6,7-tetrahydro-benzo[b]thiophen-6-ylmethyl ester] were at most 501 nM and at least 100000 nM.
For the molecule `CN(C)C(=O)OCC1CCc2c(sc(NC(=O)/C=C/c3cccnc3)c2C#N)C1` (stereo not drawn) [Example 74, Dimethyl-carbamic acid 3-cyano-2-((E)-3-pyridin-3-yl-allanoylamino)-4,5,6,7-tetrahydro-benzo[b]thiophen-6-ylmethyl ester], the values for the IC50 in assay [1] and in assay [2] were at most 501 nM and at least 100000 nM, respectively.
Take `CN(C)c1ncc(CNC(=O)OCC2CCc3c(sc(NC(=O)/C=C/c4cccnc4)c3C#N)C2)s1` (stereo not drawn) [Example 140, (2-Dimethyl-amino-thiazol-5-ylmethyl)-carbamic acid 3-cyano-2-((E)-3-pyridin-3-yl-allanoylamino)-4,5,6,7-tetrahydro-benzo[b]thiophen-6-ylmethyl ester]: the figures for the IC50 in assay [1] and in assay [2] were at most 501 nM and at least 100000 nM, respectively.
